IC50 data for 28 compounds are collected here from patent US12624018B1, “Inhibitors of RIPK2 and medical uses thereof” (Odyssey Therapeutics, Inc., priority 2022, dated 2026).

Structures are written as SMILES.

As usually defined, the IC50 is the concentration at which inhibition is half-maximal.

In the assay the target is T1, RIPK2 enzyme (Homo sapiens, UniProt O43353).
T1 construct: purchased Carna 09-128
The assay is described as follows: RIPK2 inhibition (ADP-Glo Kinase Assay). As to conditions: RIPK2 5 nM, ATP 150 μM, MBP substrate, read-out: RIPK2 IC50. The assay is classed as biochemical. How it is done: RIPK2 inhibition was measured as follows:
The V9102 ADP-Glo Kinase Assay (including ultrapure ATP, 10 mM) was purchased from Promega. Native swine MBP was used as the substrate for the reaction and was purchased from SignalChem Biotech (catalogue number M42-51N). Assay buffer used for the assay consisted of the following components: MgCl2 (final concentration of 10 mM), Brij-35 (0.01%), DTT (final concentration of 2 mM), BSA (0.05%), EGTA (final concentration of 1 mM), and HEPE (pH 7.5 at final concentration of 50 mM).
Method: In a 384 well plate, 10 nL of test compound was dispensed using Echo550 and mixed with RIPK2 enzyme (final concentration of 5 nM) in assay buffer for 30 minutes at room temperature. […] Then ADP-Glo reagent was added and incubated for 60 min at room temperature. Last, Kinase Detection Reagent was added to the mixture and incubated for 60 min. The resulting luminescent signal was measured with an Envision reader to determine the amount of ADP produced. All plates contained vehicle controls (10 nL DMSO only) as a reference for the high control (0% kinase inhibition), and wells with no RIPK2 enzyme as reference for low control (100% kinase inhibition). Data were analyzed to determine the percent inhibition of ADP production in the presence of test compound using both low and high controls.
On the technique in general: In ADP-Glo the light output rises with the ADP produced.

T1 sequence (O43353 1-299 limits assumed): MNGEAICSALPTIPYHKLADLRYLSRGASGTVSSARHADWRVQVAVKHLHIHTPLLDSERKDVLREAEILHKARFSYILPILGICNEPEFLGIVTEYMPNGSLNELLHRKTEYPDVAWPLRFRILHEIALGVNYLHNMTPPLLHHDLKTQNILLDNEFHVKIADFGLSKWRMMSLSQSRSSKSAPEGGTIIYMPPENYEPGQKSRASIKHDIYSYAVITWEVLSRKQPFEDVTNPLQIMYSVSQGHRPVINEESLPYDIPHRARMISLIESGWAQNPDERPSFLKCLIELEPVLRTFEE

In the case of `Cc1c(Oc2ccnc3ccc(C(=O)N4CCC(N)C4)cc23)ccc(CC(=O)Nc2cnn(C(C)(C)C)c2)c1F` (single isomer, unassigned) [Compound 353, 2-(4-((6-(3-amino-pyrrolidine-1-carbonyl)quinolin-4-yl)oxy)-2-fluoro-3-methyl-phenyl)-N-(1-(tert-butyl)-1H-pyrazol-4-yl)acetamide], the IC50 is < 2.5 nM.

Take `Cc1c(Oc2ccnc3ccc(C(=O)N4CCC(N)C4)cc23)ccc(CC(=O)Nc2cnn(C(C)(C)C)c2)c1F` (single isomer, unassigned) [Compound 354, 2-(4-((6-(3-amino-pyrrolidine-1-carbonyl)quinolin-4-yl)oxy)-2-fluoro-3-methyl-phenyl)-N-(1-(tert-butyl)-1H-pyrazol-4-yl)acetamide]: the IC50 is < 2.5 nM. In the case of `Cc1cc(CC(=O)Nc2cnn(C(C)(C)C)c2)c(F)cc1Oc1ccnc2ccc(C(=O)N3CCC(O)C3)cc12` (single isomer, unassigned) [Compound 375, N-(1-(tert-butyl)-1H-pyrazol-4-yl)-2-(2-fluoro-4-((6-(3-hydroxy-pyrrolidine-1-carbonyl)quinolin-4-yl)oxy)-5-methyl-phenyl) acetamide], the IC50 is < 2.5 nM.

On to `Cc1cc(CC(=O)Nc2cnn(C(C)(C)C)c2)c(F)cc1Oc1ccnc2ccc(C(=O)N3CCC(O)C3)cc12` (single isomer, unassigned) [Compound 376, N-(1-(tert-butyl)-1H-pyrazol-4-yl)-2-(2-fluoro-4-((6-(3-hydroxy-pyrrolidine-1-carbonyl)quinolin-4-yl)oxy)-5-methylphenyl) acetamide], for which the IC50 is < 2.5 nM. As for `Cc1cc(CC(=O)Nc2cnn(C(C)(C)C)c2)c(F)cc1Oc1ccnc2ccc(C(=O)NC3CC(C#N)C3)cc12` (single isomer, unassigned) [Compound 395, 4-(4-(2-((1-(tert-butyl)-1H-pyrazol-4-yl)amino)-2-oxoethyl)-5-fluoro-2-methyl-phenoxy)-N-(-3-cyano-cyclobutyl) quinoline-6-carboxamide], the figure is < 2.5 nM; as for `Cc1cc(CC(=O)Nc2cnn(C(C)(C)C)c2)c(F)cc1Oc1ccnc2ccc(C(=O)NC3CC(C#N)C3)cc12` (single isomer, unassigned) [Compound 396, 4-(4-(2-((1-(tert-butyl)-1H-pyrazol-4-yl)amino)-2-oxoethyl)-5-fluoro-2-methyl-phenoxy)-N-(-3-cyano-cyclobutyl) quinoline-6-carboxamide], < 2.5 nM. `Cc1c(Oc2ccnc3ccc(C(=O)NC4CC(C#N)C4)cc23)ccc(CC(=O)Nc2cnn(C(C)(C)C)c2)c1F` (single isomer, unassigned) [Compound 403, 4-(4-(2-((1-(tert-butyl)-1H-pyrazol-4-yl)amino)-2-oxoethyl)-3-fluoro-2-methyl-phenoxy)-N-(-3-cyano-cyclobutyl) quinoline-6-carboxamide]: the IC50 is < 2.5 nM.

Turning to `Cc1c(Oc2ccnc3ccc(C(=O)NC4CC(C#N)C4)cc23)ccc(CC(=O)Nc2cnn(C(C)(C)C)c2)c1F` (single isomer, unassigned) [Compound 404, 4-(4-(2-((1-(tert-butyl)-1H-pyrazol-4-yl)amino)-2-oxoethyl)-3-fluoro-2-methyl-phenoxy)-N-(-3-cyano-cyclobutyl) quinoline-6-carboxamide], the half-inhibitory concentration (IC50) is < 2.5 nM. As for `COc1ccc2nccc(Oc3ccc(CC(=O)Nc4cnn(C(C)(C)C)c4)c(F)c3)c2c1` [Compound 1, N-(1-(tert-butyl)-1H-pyrazol-4-yl)-2-(2-fluoro-4-((6-methoxy-quinolin-4-yl)oxy)phenyl) acetamide], the figure is 5.6 nM; as for `COc1cc2ncnc(Oc3ccc(CC(=O)Nc4cnn(C(C)(C)C)c4)c(F)c3)c2cc1S(=O)(=O)C(C)(C)C` [Compound 2, N-(1-(tert-butyl)-1H-pyrazol-4-yl)-2-(4-((6-(tert-butylsulfonyl)-7-methoxyquinazolin-4-yl)oxy)-2-fluorophenyl)acetamide], < 2.5 nM. Regarding `COc1cc2nccc(Oc3ccc(CC(=O)Nc4cnn(C(C)(C)C)c4)c(F)c3)c2cc1S(=O)(=O)C(C)(C)C` [Compound 3, N-(1-(tert-butyl)-1H-pyrazol-4-yl)-2-(4-((6-(tert-butylsulfonyl)-7-methoxyquinolin-4-yl)oxy)-2-fluorophenyl)acetamide], the IC50 was < 2.5 nM. For the compound `CC(C)(C)n1cc(NC(=O)Cc2ncc(Oc3ccnc4ccc(F)cc34)cn2)cn1` [Compound 4], the IC50 stood at 61.9 nM. Take `CC(C)(C)n1cc(NC(=O)Cc2ncc(Oc3ncnc4ccc(F)cc34)cc2F)cn1` [Compound 5, N-(1-(tert-butyl)-1H-pyrazol-4-yl)-2-(3-fluoro-5-((6-fluoroquinazolin-4-yl)oxy)pyridin-2-yl)acetamide]: the concentration for half-maximal inhibition (IC50) turned out to be 99.7 nM. As for `COc1ccc2nccc(Oc3cnc(CC(=O)Nc4cnn(C(C)(C)C)c4)c(F)c3)c2c1` [Compound 6, N-(1-(tert-butyl)-1H-pyrazol-4-yl)-2-(3-fluoro-5-((6-methoxyquinolin-4-yl)oxy)pyridin-2-yl)acetamide], the IC50 was found to be 9 nM.

For `CC(C)(C)n1cc(NC(=O)Cc2ncc(Oc3ncnc4ccc(Cl)cc34)cc2F)cn1` [Compound 7, N-(1-(tert-butyl)-1H-pyrazol-4-yl)-2-(5-((6-chloroquinazolin-4-yl)oxy)-3-fluoro-pyridin-2-yl)acetamide], the IC50 is 24 nM. To `COc1ccc2ncnc(Oc3cnc(CC(=O)Nc4cnn(C(C)(C)C)c4)c(F)c3)c2c1` [Compound 9, N-(1-(tert-butyl)-1H-pyrazol-4-yl)-2-(3-fluoro-5-((6-methoxyquinazolin-4-yl)oxy)pyridin-2-yl)acetamide] belongs 21.8 nM; to `COc1ccc2ncnc(Oc3cnc(CC(=O)Nc4cnn(C(C)(C)C)c4)c(Cl)c3)c2c1` [Compound 10, N-(1-(tert-butyl)-1H-pyrazol-4-yl)-2-(3-chloro-5-((6-methoxyquinazolin-4-yl)oxy)pyridin-2-yl)acetamide], 43.5 nM; to `COc1ccc2ncnc(Oc3cnc(CC(=O)Nc4cc(C(C)(C)C)[nH]n4)c(F)c3)c2c1` [Compound 12, N-(5-(tert-butyl)-1H-pyrazol-3-yl)-2-(3-fluoro-5-((6-methoxyquinazolin-4-yl)oxy)pyridin-2-yl)acetamide], 11.6 nM. `COc1ccc2nccc(Oc3cnc(CC(=O)Nc4cc(C(C)(C)C)[nH]n4)c(F)c3)c2c1` [Compound 13, N-(5-(tert-butyl)-1H-pyrazol-3-yl)-2-(3-fluoro-5-((6-methoxyquinolin-4-yl)oxy)pyridin-2-yl)acetamide]: the IC50 came out at 3.5 nM. To `CC(C)(C)n1cc(NC(=O)Cc2ccc(Oc3ncnc4ccc(N5CCOCC5)cc34)cc2F)cn1` [Compound 14, N-(1-(tert-butyl)-1H-pyrazol-4-yl)-2-(2-fluoro-4-((6-morpholinoquinazolin-4-yl)oxy)phenyl)acetamide] belongs 23.7 nM. Regarding `COc1ccc2ncnc(Oc3ccc(CC(=O)Nc4cc(C(C)(C)CO)[nH]n4)c(F)c3)c2c1` [Compound 15, 2-(2-fluoro-4-((6-methoxy-quinazolin-4-yl)oxy)phenyl)-N-(5-(1-hydroxy-2-methylpropan-2-yl)-1H-pyrazol-3-yl)acetamide], the concentration for half-maximal inhibition (IC50) came to 34.9 nM. As for `CC(C)(C)n1cc(NC(=O)Cc2ccc(Oc3ncnc4ccc(OCCO)cc34)cc2F)cn1` [Compound 16, N-(1-(tert-butyl)-1H-pyrazol-4-yl)-2-(2-fluoro-4-((6-(2-hydroxyethoxy)quinazolin-4-yl)oxy)phenyl)acetamide], the figure is 9.3 nM; as for `CC(C)(C)n1cc(NC(=O)Cc2ccc(Oc3ncnc4ccc(OCCN5CCCC5)cc34)cc2F)cn1` [Compound 17, N-(1-(tert-butyl)-1H-pyrazol-4-yl)-2-(2-fluoro-4-((6-(2-(pyrrolidin-1-yl)ethoxy)quinazolin-4-yl)oxy)phenyl) acetamide], 27.4 nM; as for `CN1CC(Oc2ccc3ncnc(Oc4ccc(CC(=O)Nc5cnn(C(C)(C)C)c5)c(F)c4)c3c2)C1` [Compound 18, N-(1-(tert-butyl)-1H-pyrazol-4-yl)-2-(2-fluoro-4-((6-((1-methyl-azetidin-3-yl)oxy)quinazolin-4-yl)oxy)phenyl) acetamide], 7.9 nM. To `CN1CCC(Oc2ccc3ncnc(Oc4ccc(CC(=O)Nc5cnn(C(C)(C)C)c5)c(F)c4)c3c2)CC1` [Compound 19, N-(1-(tert-butyl)-1H-pyrazol-4-yl)-2-(2-fluoro-4-((6-((1-methyl-piperidin-4-yl)oxy)quinazolin-4-yl)oxy)phenyl) acetamide] belongs 4.2 nM. To `CC(C)(C)c1ccnc(NC(=O)Cc2ccc(Oc3ncnc4ccc(F)cc34)cc2F)c1` [Compound 21, N-(4-(tert-butyl)pyridin-2-yl)-2-(2-fluoro-4-((6-fluoroquinazolin-4-yl)oxy)phenyl) acetamide] belongs 36.6 nM.

Consider `CC(C)c1ccnc(NC(=O)Cc2ccc(Oc3ncnc4ccc(F)cc34)cc2F)c1` [Compound 22, 2-(2-fluoro-4-((6-fluoroquinazolin-4-yl)oxy)phenyl)-N-(4-isopropylpyridin-2-yl)acetamide], for which the IC50 stood at 23.9 nM. For the compound `COc1ccc2ncnc(Oc3ccc(CC(=O)Nc4noc(C(C)(C)C)n4)c(F)c3)c2c1` [Compound 23, N-(5-(tert-butyl)-1,2,4-oxadiazol-3-yl)-2-(2-fluoro-4-((6-methoxy-quinazolin-4-yl)oxy)phenyl) acetamide], the IC50 is 14.4 nM.
